Patent US20140142140A1, “PHARMACEUTICAL COMPOSITION FOR NEUROLOGICAL DISORDERS” (priority 2011, published 2014)
Structures can show the parent of a compound that is named as a salt.

Test system: patients with autism / ASD / communication disorder
Experiment: Case reports, Autism and other Pervasive Development Disorders (Example 6)
Format: in vivo, human
Conditions: Patient 6, ASD; 50 mg daily
Source text: Patient 6A: Adult, diagnosed in childhood with autism and ADHD. A long history of behavioural disturbance with frequent episodes of violence despite treatment with high-dose antipsychotic medication. […] The high-dose antipsychotic medication has been reduced without any associated loss of recent benefit. […] A history of behavioural disturbance and educational impairment. […] Patient 6C was an adult, diagnosed in childhood with autism and ADHD with a history of behavioural disturbance and educational impairment. […] Patient 6D: Adult, diagnosed in childhood with autism, ADHD and antisocial personality traits. […] Patient C's conversation became more appropriate and consistent together with reported improvements in significant relationships. […] Patient 6E was an adult, diagnosed with communication disorder and major depression. […] Patient 6F was an adult with ASD. […] The patient's conversation became more appropriate and consistent and improvements in significant relationships were reported. A reduction in the reliance on alcohol to alleviate anxiety in social situations was observed. […] Sodium valproate was withdrawn and improvement was noted. […] Patient 6G was as adult, diagnosed in childhood with ASD. […] Sodium valproate was withdrawn. […] This has also been associated with improvements in reading and verbal understanding. These benefits have been sustained in some situations for three years. Although difficult to be objective, there seems to be good evidence of ongoing improvement. […] Improvements in coordination, in fine and gross motor control have been reported and improvement in gait which frequently is a significant issue for individuals with autistic disorders.

SMILES | behaviour, verbal and non-verbal communication
CCCC(CCC)C(=O)O.[Na] [sodium valproate, sodium di-n-propylacetic acid] | significant improvement in behaviour, verbal and non-verbal communication

Same assay, conditions: Patient 6; 25 mg daily

SMILES | reintroduction at lower dose
CCCC(CCC)C(=O)O.[Na] [sodium valproate, sodium di-n-propylacetic acid] | successfully reintroduced

Same assay, conditions: Patient 6; 50 mg daily

SMILES | adverse effects within three days
CCCC(CCC)C(=O)O.[Na] [sodium valproate, sodium di-n-propylacetic acid] | increasing cognitive slowing, general malaise and tiredness

Same assay, conditions: Patient 6E, communication disorder and major depression; 50 mg

SMILES | communication
CCCC(CCC)C(=O)O.[Na] [sodium valproate, sodium di-n-propylacetic acid] | significant improvement in communication

Same assay, conditions: Patient 6E; 25 mg daily

SMILES | communication
CCCC(CCC)C(=O)O.[Na] [sodium valproate, sodium di-n-propylacetic acid] | sustained improvement in the ability to communicate with less effort

Same assay, conditions: Patient 6E; medication ceased

SMILES | benefits when medication ceased
CCCC(CCC)C(=O)O.[Na] [sodium valproate, sodium di-n-propylacetic acid] | initial benefits were lost

Same assay, conditions: Patient 6G; 25 mg on alternate days

SMILES | communication, eye contact, motor tics, social engagement
CCCC(CCC)C(=O)O.[Na] [sodium valproate, sodium di-n-propylacetic acid] | sustained improvement in the communication, eye contact during dialogue, reduction in motor tics and greater social engagement and independently motivated activity

Same assay, conditions: Patient 6G; 50 mg daily

SMILES | communication and other symptoms of ASD | side-effects
CCCC(CCC)C(=O)O.[Na] [sodium valproate, sodium di-n-propylacetic acid] | improvement in communication and other symptoms of ASD | low mood and irritability

Test system: patients with Alzheimer's type dementia
Experiment: Case reports, Mild Cognitive Impairment (MCI) and Dementia (Example 1)
Format: in vivo, human
Conditions: Patient 1B, 7 year history of Alzheimer's type dementia
Source text: Patient 1A was an elderly person with history of impairment of cognitive function. Presumptive diagnosis of possible dementia of Alzheimers type.
Patient 1B was an elderly retired person with a 7 year history of Alzheimer's type dementia treated with the cholinesterase inhibitor Donepezil. […] Their cognitive function has gradually deteriorated since this time. […] Their reading was more fluent being better able to follow the meaning of the text. There was also improvement in their Stroop Test particularly in part three, the more cognitively demanding where their accuracy improved from 50 to 90%.

SMILES | subjective cognitive functioning and ADAS-cog
COc1cc2c(cc1OC)C(=O)C(CC1CCN(Cc3ccccc3)CC1)C2 (stereo not shown) [Donepezil] | significant improvement in their subjective cognitive functioning

Test system: mood stabilisation or epileptic symptoms or events
Experiment: not given
Conditions: in vivo; cited from earlier work

SMILES | Minimum typical dose/day effective for mood stabilisation or treatment of epileptic symptoms or events
CN1C(=O)CC(=O)N(c2ccccc2)c2cc(Cl)ccc21 [Clobazam] | 5 mg/kg daily

Same assay, conditions: per day; cited from earlier work

SMILES | Minimum typical dose/day effective for mood stabilisation or treatment of epileptic symptoms or events
NC(=O)NC(=O)Cc1ccccc1 [Phenacemide] | 500 mg
NCC1(CC(=O)O)CCCCC1 [Gabapentin, 2-[1-(aminomethyl)cyclohexyl]acetic acid] | 900 mg
CCC1(C)OC(=O)N(C)C1=O (stereo not shown) [Paramethadione] | 300 mg
CCC1(c2ccccc2)C(=O)NC(=O)NC1=O.CNC(C)CC1CCCCC1 [Barbexaclone] | 200 mg in divided doses
NC(=O)OCC(COC(N)=O)c1ccccc1 [Felbamate] | 1200 mg
N#Cc1ccccc1-c1cc(-c2ccccn2)cn(-c2ccccc2)c1=O [Perampanel] | 2 mg
CCC1(c2ccccc2)NC(=O)N(C)C1=O (stereo not shown) [Methoin] | 1000 mg
CC(C)C[C@H](CN)CC(=O)O [Pregabalin, (S)-3-(aminomethyl)-5-methylhexanoic acid] | 300 mg
CN1C(=O)OC(C)(C)C1=O [Trimethadione] | 900 mg
CCN1C(=O)OC(C)(C)C1=O [Ethadione] | 1000 mg
CCC1(c2ccc(N)cc2)CCC(=O)NC1=O (stereo not shown) [Aminoglutethimide] | 125 mg
CCN1C(=O)NC(c2ccccc2)C1=O (stereo not shown) [Ethotoin] | 1000 mg
NS(=O)(=O)c1ccc(N2CCCCS2(=O)=O)cc1 [Sultiame] | 200 mg
CCC(C(=O)NC(N)=O)c1ccccc1 (stereo not shown) [Pheneturide] | 600 mg
O=C1NC(c2ccccc2)(c2ccccc2)C(=O)N1COP(=O)(O)O [Fosphenytoin Sodium] | 10 mg/kg
COC[C@@H](NC(C)=O)C(=O)NCc1ccccc1 [Lacosamide] | 200 mg

SMILES | Minimum typical dose/day effective for mood stabilisation or treatment of epileptic symptoms or events
CCC1(C)CC(=O)NC1=O (stereo not shown) [Ethosuximide] | 1000 mg
CC[C@@H](C(N)=O)N1CCCC1=O [Levetiracetam] | 1000 mg
NS(=O)(=O)Cc1noc2ccccc12 [Zonisamide] | 200 mg
CC1(C)O[C@@H]2[C@@H](CO[C@@]3(COS(N)(=O)=O)OC(C)(C)O[C@@H]23)O1 [Topiramate, 2,3:4,5-Bis-O-(1-methylethylidene)-beta-D-fructopyranose sulfamate] | 100 mg
O=C1CN=C(c2ccccc2Cl)c2cc([N+](=O)[O-])ccc2N1 [Clonazepam] | 1 mg
Cc1ccsc1C(=CCCN1CCC[C@@H](C(=O)O)C1)c1sccc1C [Tiagabine Hydrochloride] | 30 mg
CN1C(=O)CC(c2ccccc2)C1=O (stereo not shown) [Phensuximide] | 1000 mg
CCC[C@@H]1CC(=O)N([C@@H](CC)C(N)=O)C1 [Brivaracetam] | 100 mg
C=CC(N)CCC(=O)O (stereo not shown) [Vigabatrin] | 1000 mg
CN1C(=O)CC(C)(c2ccccc2)C1=O (stereo not shown) [Methsuximide] | 300 mg
CCC1(c2ccccc2)C(=O)NCNC1=O [Primidone] | 750 mg
CCC1(c2ccccc2)NC(=O)N(C)C1=O (stereo not shown) [Mephenytoin] | 200 mg
COC1=CC(=O)OC1C(O)c1ccccc1Cl (stereo not shown) [Losigamone] | 1500 mg
NC(=O)N1c2ccccc2C=Cc2ccccc21 [Carbamazepine] | 400 mg
NC(=O)N1c2ccccc2CC(=O)c2ccccc21 [Oxcarbazepine] | 600 mg
Nc1nnc(-c2cccc(Cl)c2Cl)c(N)n1 [Lamotrigine, 3,5-diamino-6-(2,3-dichlorophenyl)-1,2,4-triazine] | 100 mg
